Holding throughout (format): cell-based, rat
One assay concerns GLUT4. In words: GLUT4 translocation in L6 myotubes after siRNA knockdown of AMPKα, JAK2 or JAK3. As to conditions: for compound-induced GLUT4 translocation after siRNA for AMPK: siAMPKα 50 nM 48 h, 1 mM AICAR; for compound-induced GLUT4 translocation after siRNA for AMPK / compound-induced GLUT4 translocation after siRNA for JAK2: 1 nM quercetin or isorhamnetin; for compound-induced GLUT4 translocation after siRNA for JAK2: siJAK2 50 nM 48 h, 10 nM leptin. The protocol:
(§1) For in vitro cell culture experiments, after serum starvation for 18 h, myotubes were treated with various concentrations of quercetin or isorhamnetin (0.1–10 nM) for 15 min; DMSO (final 0.1%) was used as a vehicle control. As positive controls, 100 nM insulin, 1 mM AICAR, 10 nM leptin, or 100 ng/mL IL-15 were used for insulin, AMPK, JAK2/STAT, or JAK3/STAT signalling pathways, respectively. Cells were treated with insulin or AICAR for 15 min, leptin for 60 min, or IL-15 for 24 h. Whole protein and plasma membrane fractions were prepared from myotubes, as previously described. For in vivo experiment, plasma membrane fraction and tissue lysate of soleus muscle were prepared.
Translocation of GLUT4 to the plasma membrane, as well as expression and phosphorylation levels of GLUT4-related regulators were estimated by western blot analysis. Briefly, equal amounts of proteins were separated by sodium dodecyl sulfate-polyacrylamide gel electrophoresis (SDS-PAGE). Separated proteins were transferred onto a polyvinylidene fluoride membrane and nonspecific binding sites were blocked using either Blocking One (to detect unphosphorylated proteins) or Blocking One-P (to detect phosphoproteins). The membrane was incubated overnight with an appropriate primary antibody for GLUT4 (1:5000), IR (1:10000), p-IRS1 (1:5000), IRS1 (1:5000), p-PI3K (1:5000), PI3K (1:10000), p-Akt (1:5000), Akt (1:10000), p-AMPKα (1:5000), AMPKα (1:10000), p-ACC (1:5000), ACC (1:10000), p-LKB1 (1:5000), LKB1 (1:10000), p-JAK2 (1:5000), JAK2 (1:5000), p-JAK3 (1:5000), JAK3 (1:10000), p-STAT1 (1:5000), STAT1 (1:10000), p-STAT3 (1:5000), STAT3 (1:10000), p-STAT5 (1:5000), STAT5 (1:10000), or β-actin (1:20000), and subsequently treated with the corresponding horseradish peroxidase-conjugated secondary antibody (1:50000) for 1 h. Specific immune complexes were developed using ImmunoStar® LD and detected with an ATTO Light-Capture II Western Blotting Detection System. Individual band density was calculated by ImageJ and normalized to the control.
Mature myotubes were cultured in antibiotic-free medium and transfected with siRNA at a final concentration of 50 nM using Lipofectamine RNAiMAX transfection reagent according to the manufacturer’s instructions. In brief, mature myotubes were transfected with siRNA in Opti-MEM for 48 h. Subsequently, the medium was changed to fresh Opti-MEM and cells were treated with the indicated concentrations of quercetin or isorhamnetin.

In another assay the test system is PI3K. The assay is described as follows: Phosphorylation of PI3K in L6 myotubes (western blot). To be noted: 15 min. The method, then:
as §1
(§2) Translocation of GLUT4 to the plasma membrane, as well as expression and phosphorylation levels of GLUT4-related regulators were estimated by western blot analysis. Briefly, equal amounts of proteins were separated by sodium dodecyl sulfate-polyacrylamide gel electrophoresis (SDS-PAGE). […] Specific immune complexes were developed using ImmunoStar® LD and detected with an ATTO Light-Capture II Western Blotting Detection System. Individual band density was calculated by ImageJ and normalized to the control.

A further assay deals with LKB1. In words: Phosphorylation of LKB1 in L6 myotubes (western blot). As to conditions: 0.1–10 nM, 15 min. The protocol:
as §1, §2

Another assay concerns L6 myotubes. In words: Enzymatic 2DG glucose uptake assay in L6 myotubes. As to conditions: 4 h; for glucose uptake, shape of concentration dependence: 0.01–10^4 nM. The method, then: In vitro cultured cell experiments were conducted according to a previously described protocol[6],[14]. Briefly, L6 myoblasts derived from rat skeletal muscle and of less than 40 passages were maintained in MEM supplemented with 10% foetal bovine serum (FBS) and antibiotics (100 U/ml penicillin and 100 μg/ml streptomycin) at 37 °C under a humidified atmosphere condition of 5% CO2 and 95% air. In each experiment, cells (2.2 × 10^4 cells/ml) were seeded into 96-well plates or 60-mm dishes for induction of differentiation into mature myotubes. After reaching confluence, cells were supplemented with differentiation medium containing 2% FBS and the same antibiotics for 7 days. Cells were used for each experiment after morphological analysis of differentiation status using phase-contrast microscopy. To explore the contribution of CaMKKβ or intracellular-free calcium ions in quercetin- and isorhamnetin-stimulated GLUT4 translocation, L6 cells were incubated in the presence or absence of 10 μM STO-609 and 25 μM […], respectively, for 30 min prior to treatment with either quercetin or isorhamnetin.
After serum starvation by incubating L6 myotubes in MEM with 0.2% BSA for 18 h, cells were treated with quercetin and isorhamnetin at the specified concentration (0.01 nM–10 μM) for 4 h in 0.2% BSA-containing medium. DMSO and insulin (100 nM) were used as a vehicle control and positive control, respectively. Glucose uptake was measured by an enzymatic 2DG uptake assay using myotubes on a 96-well plate as previously described.

The mark [1] stands for this setting: 0.01 nM to 1 nM, compared with vehicle (DMSO).

Regarding `O=c1c(O)c(-c2ccc(O)c(O)c2)oc2cc(O)cc(O)c12` [quercetin, 3,3′,4′,5,7-pentahydroxy flavone], in the assay on GLUT4, the “compound-induced GLUT4 translocation after siRNA for AMPK” value was “almost completely abolished”. Further, the “compound-induced GLUT4 translocation after siRNA for JAK2” value in the assay on GLUT4 is on record as “without affecting”. The “phosphorylation of PI3K” value with PI3K (0.1–10 nM) is “significantly increased phosphorylation of PI3K”. For the same molecule, the LKB1 phosphorylation result with LKB1 is “neither quercetin nor isorhamnetin increased LKB1 phosphorylation”. For the same molecule, the glucose uptake entry with L6 myotubes (setting [1]) was “increased glucose uptake in a dose-dependent manner”; in the assay on L6 myotubes (0.1 nM), “significant increase”; in the assay with L6 myotubes (1 nM), “significant increase”; in the assay with L6 myotubes (10 nM), “decreased glucose uptake”; in the assay with L6 myotubes (100 nM) it was “decreased glucose uptake”; in the assay with L6 myotubes (1 μM), “significant increase”. Moreover, the glucose uptake entry with L6 myotubes (10 μM) is on record as “significant increase”. For the same molecule, the “glucose uptake, shape of concentration dependence” value in the assay with L6 myotubes was “biphasic increase in glucose uptake”.

For `COc1cc(-c2oc3cc(O)cc(O)c3c(=O)c2O)ccc1O` [isorhamnetin, 3′-O-methyl quercetin], the “compound-induced GLUT4 translocation after siRNA for AMPK” value with GLUT4 is on record as “failed to suppress”. For the same molecule, the “compound-induced GLUT4 translocation after siRNA for JAK2” value with GLUT4 is “abolished”. Also, the “compound-induced GLUT4 translocation after siRNA for JAK3” value in the assay with GLUT4 (siJAK3 50 nM 48 h, 1 nM isorhamnetin, not significant) is reported as “slightly decreased”. Besides, in the assay on PI3K (0.1 nM), the “phosphorylation of PI3K” value is on record as “increased PI3K phosphorylation”. Besides, the LKB1 phosphorylation result with LKB1 is “neither quercetin nor isorhamnetin increased LKB1 phosphorylation”. The glucose uptake entry is reported as “increased glucose uptake in a dose-dependent manner” in the assay on L6 myotubes (setting [1]); “significant increase” in the assay with L6 myotubes (1 nM); “decreased glucose uptake” in the assay with L6 myotubes (10 nM); “decreased glucose uptake” in the assay on L6 myotubes (100 nM); “significant increase” in the assay with L6 myotubes (1 μM); “significant increase” in the assay with L6 myotubes (10 μM). The “glucose uptake, shape of concentration dependence” value in the assay with L6 myotubes is given as “biphasic increase in glucose uptake”.

For the origin of these results see publication PMC6389993, “Quercetin and its metabolite isorhamnetin promote glucose uptake through different signalling pathways in myotubes” (Scientific Reports, 2019).
